Laboratory results: patent publication US7465471B2, “Palatability of aquaculture feed” (Novus International, Inc., priority 2003, dated 2008)
Where a name gives a salt, the structure may show the parent alone. Read-outs that look alike come from different tables or passages of the source.

Assays:
S. enteritidis = S. enteritidis colony counts in broth (Examples 1-3, 17); conditions: pH 4.5; for log cfu/mL (S. enteritidis colony counts in broth): total 5 g/L, protocol of Example 1; for inhibitory effect on S. enteritidis: 5 g/l, Example 17; for log cfu/mL: Table 24, blends total 5 g/L, control […]
Salmonella = conditions: for Δ log: Table 11, 90 min 37 C; for Average cfu/g / Average log / Average Δ log: protocol of Example 9; for Average Δ log: versus control
Experimental: Tests were carried out using 1 g feed (crumble ground) with 6% meat and bone meal (“MBM”). […] The acid solutions were added to the feed as indicated below; water (1 mL) and 150 mM HCl (1.8 mL) was added to bring the pH to 4.0. Naldixic Acid resistant Salmonella (provided by Dr. Stan Bailey, USDA/ARS, Athens, Ga.) (initial colony count=40,000 cfu/g) was added, and the feed solutions were incubated at 37 C for 90 min. Each sample was diluted with 6 mL H2O, plated, and counted the following day.

[1] = test system: Common carp, Cyprinus carpio L.; test: Feeding preference of common carp, number of bites (Example 25); assay type: in vivo; conditions: for Bites/10 minutes: test diet vs control diet in same tank
Experimental: Common carp, Cyprinus carpio L. from a commercial fish farm were acquired and sorted to common body weight and length, about 20 g and 8-11 cm, respectively. […] Diets were mixed with adequate water to create a stable feed ball. […] Twenty tanks (45 cm×40 cm×45 cm) were dedicated the feeding behavior assessment. Two fish were housed in each tank with two feeding bars per tank. […] The water in each tank was aerated 24 h a day and the fish were fed the control diet under the above conditions for one week prior to the study. To evaluate preference, the control and test diets were each placed on one of the two bars in each tank.

E. coli (ATCC 25922) = test: E. coli populations in trypticase soy broth with acid:Alimet blends (Example 4); assay type: cell-based; conditions: Table 7, total 6 g/L, initial 4.97 log cfu/mL
Text: Blends of organic acid:Alimet® of 2:1 and 5:1 were studied, at a total concentration (organic acid+Alimet®) of 6 g/L.
The pH of the solutions were originally adjusted to pH 5 by addition of HCl and/or NaOH as needed. Activated E. coli culture solutions were transferred to fresh soy broth twice at 24-hour intervals prior to before addition of the organic acid:Alimet® blend. E. coli culture solutions were centrifuged; pellet produced was re-suspended with Butterfield buffer, and the resulting solutions were diluted to approximately 10^7 CFU E. coil/mL.
Bottles were inoculated with 100 μL of prepared bacterial suspension and an organic acid:Alimet® blend. Samples were taken after five and 24 hours of incubation, serially diluted and spread-plated on trypticase soy agar, and incubated at 35° C. for 24 hours.

E. coli = E. coli colony counts over time in soy broth at pH 4 or 7.3 (Example 5); assay type: cell-based; conditions: FIG. 5
Experimental: The cultures were incubated, and colony counts performed at increasing times.

mold = test: Mold growth in starter mash by CO2 formation in headspace (Examples 7, 8); conditions: basal diet 85.2% dry matter; 2.0, 1.5 and 1.0 lb/ton; FIG. 12
Experimental: Fungal growth in basal starter mash was studied in compositions supplemented with DLM or Alimet® as the methionine source. Total microbial growth was monitored by measuring carbon dioxide (CO2) formation in sealed vessels at 28° C. over time.
The technique of using a closed system and measuring CO2 formation has been verified as an approximation of the conditions found in grain storage bins. See, e.g., Muir et al., Trans. ASAE, 28(5) 1673-1675 (1985), the contents of which are hereby incorporated by reference in their entirety.
A mash starter mash feed (formulation shown in Table 9, below) was subdivided into three groups: basal (control), 0.2% DLM, or 0.2% Alimet®. The feed studied had no commercial mold inhibitors added, and is representative of a typical broiler feed.
Initial moisture of the feed was 10.8%. After the addition of Alimet® or DLM, the moisture of the samples was adjusted by the addition of 2%, 4%, or 6% sterile distilled water to promote mold growth, achieving three moisture groups: […].
For each study, four replicate samples of each moisture group were mixed, and 600 g of the mixture was placed into 1 L containers, sealed, and placed at 28° C. in a temperature-controlled room. Draeger Detector tubes (CO2-measuring, obtained from Fisher Scientific) were used to measure the developed CO2 at different days following vessel sealing (two measurements were made per week). Draeger Short-Term Detector Tubes are glass tubes filled with inert carrier and an indicating reagent. The reagent produces a colorimetric indication in the presence of a particular gas (CO2). The concentration of gas is read directly from the discoloration on the tube's printed scale.
The specific mold species present were not identified. Statistical analysis was accomplished by using Duncan's multiple range test (SAS). Different letters on individual time points in FIGS. 9-11 indicate statistical differences of P<0.05.
The experiment described above in Example 7 was repeated with blends of 2.0 lb/ton, 1.5 lb/ton, 1.0 lb/ton or 0.5 lb/ton of 65% propionic acid and either […]. The blends were prepared according to the matrix outlined in Table 8, below. The 65% propionic acid was buffered with ammonium hydroxide to a pH of 5.5.

[2] = Table 26, acid or formaldehyde plus Alimet
[3] = Table 34, formulations of Table 33 (g/kg)
[4] = Table 37, formulations of Table 36 (g/kg)
[5] = Table 38, formulations of Table 36 (g/kg)

CC(O)C(=O)O (stereo not shown) [Blend A105]
log cfu/mL (S. enteritidis colony counts in broth) (S. enteritidis; Table 25, acid plus Alimet): 4.44 log cfu/mL

CCCC(=O)O [butyric, butyric acid]
Δ log (Salmonella; 10 g/L, vs control): 0.7 | Δ log (Salmonella; 30 g/L, vs control): 4.0 | Δ log (Salmonella; 50 g/L, vs control): 4.0

O=P(O)(O)O [Blend A123]
log cfu/mL (S. enteritidis colony counts in broth) (S. enteritidis; [2]): 4.68 log cfu/mL

CCCC(=O)O [Blend A16]
log cfu/g (Salmonella; Table 13, blends without Alimet, control 4.7): 2.7 log cfu/g | Δ log reduction (Salmonella; Table 13, blends without Alimet, vs control): 2.0

O=P(O)(O)O [Phosphoric, phosphoric acid]
inhibitory effect on S. enteritidis (S. enteritidis): do not show a significant inhibitory effect

O=CO [Blend A81]
log cfu/mL (S. enteritidis): 3.93 log cfu/mL

O=C(O)CC(O)(CC(=O)O)C(=O)O [Blend A93]
log cfu/mL (S. enteritidis): 4.74 log cfu/mL

CSCCC(O)C(=O)O (stereo not shown) [MHA, methionine hydroxy analog]
Bites/10 minutes ([1]; MHA 0.077 % Inclusion): 74.39 ± 14.14 Bites/10 minutes | Bites/10 minutes ([1]; MHA 0.154 % Inclusion): 67.73 ± 23.18 Bites/10 minutes | Bites/10 minutes ([1]; MHA 0.308 % Inclusion): 63.52 ± 20.23 Bites/10 minutes | number of bites vs control diet ([1]; common carp, 10 minutes, 0.07-0.28% Alimet or 0.077-0.308% MHA in diet): significantly higher

O=C(O)CC(O)C(=O)O (stereo not shown) [Blend A111]
log cfu/mL (S. enteritidis colony counts in broth) (S. enteritidis; Table 25, acid plus Alimet): 5.01 log cfu/mL

C=O [Blend A129]
log cfu/mL (S. enteritidis colony counts in broth) (S. enteritidis; [2]): −0.30 log cfu/mL

O=C(O)/C=C/C(=O)O [Blend A99]
log cfu/mL (S. enteritidis colony counts in broth) (S. enteritidis; Table 25, acid plus Alimet): 4.68 log cfu/mL

CCCC(=O)O [Blend A147]
Trial 1 cfu/g (Salmonella; Table 34): 22,200 cfu/g | Trial 2 cfu/g (Salmonella; Table 34): 15,400 cfu/g | Average cfu/g (Salmonella; [3]): 18,800 cfu/g | Average log (Salmonella; [3]): 4.3 | Average Δ log (Salmonella; Table 34): 0.4

CCCC(=O)O [Blend A87]
log cfu/mL (S. enteritidis): 4.44 log cfu/mL

Cl [HCl, hydrochloric acid]
log cfu/mL t = 4 h (E. coli (ATCC 25922)): 7.85 log cfu/mL | log cfu/mL t = 24 h (E. coli (ATCC 25922)): 8.34 log cfu/mL

CCCC(=O)O [Blend A177]
Trial 1 cfu/g (Salmonella; Table 37): 5,400 cfu/g | Trial 2 cfu/g (Salmonella; Table 37): 7,000 cfu/g | Trial 3 cfu/g (Salmonella; Table 37): 6,600 cfu/g | Average cfu/g (Salmonella; [4]): 6,333 cfu/g | Average log (Salmonella; [4]): 3.8 | Average Δ log (Salmonella; Table 37): 0.5

O=C(O)/C=C/C(=O)O [fumaric, fumaric acid]
inhibitory effect on S. enteritidis (S. enteritidis): do not show a significant inhibitory effect

CCC(=O)O [Blend A204]
Trial 1 cfu/g (Salmonella; Table 38): 5,400 cfu/g | Trial 2 cfu/g (Salmonella; Table 38): 1,600 cfu/g | Average cfu/g (Salmonella; [5]): 3,500 cfu/g | Average log (Salmonella; [5]): 3.5 | Average Δ log (Salmonella; Table 38): 0.6

CCC(=O)O [propionic, propionic acid]
inhibitory effect on S. enteritidis (S. enteritidis): do not show a significant inhibitory effect

O=C(O)CC(O)C(=O)O (stereo not shown) [malic, malic acid]
inhibitory effect on S. enteritidis (S. enteritidis): do not show a significant inhibitory effect

CSCCC(O)C(=O)O (stereo not shown) [Blend A207]
Trial 1 cfu/g (Salmonella; Table 38): 0 cfu/g | Trial 2 cfu/g (Salmonella; Table 38): 0 cfu/g | Trial 3 cfu/g (Salmonella; Table 38): 0 cfu/g | Trial 4 cfu/g (Salmonella; Table 38, Trial 4): 0 cfu/g | Average cfu/g (Salmonella; [5]): 0 cfu/g | Average Δ log (Salmonella; Table 38): 4.2

CCC(=O)O [Blend A117]
log cfu/mL (S. enteritidis colony counts in broth) (S. enteritidis; [2]): 4.34 log cfu/mL

CC(O)C(=O)O (stereo not shown) [lactic, lactic acid]
inhibitory effect on S. enteritidis (S. enteritidis): do not show a significant inhibitory effect | decrease of colony counts of E. coli vs hydrochloric acid (E. coli): better than hydrochloric acid

CCC(=O)O [65% propionic acid, propionic acid]
delay of the onset of mold growth (mold): about 11 days
